The values that follow are results of earlier work, collected in patent US11865125B2, “APKC inhibitors and methods of treating a neurodegenerative disease or disorder” (UNIVERSITY OF SOUTH FLORIDA, priority 2016, dated 2024).

For this series, the target named is T1, aPKC (Mus musculus, UniProt Q62074).
T1 construct: previously seen in isolated human hepatocytes, mouse adipocytes and recombinant PKC-λ/ι [8,16]; endogenous in cells; host or cells: isolated mouse adipocytes
T1 sequence (Q62074 2-595 limits assumed): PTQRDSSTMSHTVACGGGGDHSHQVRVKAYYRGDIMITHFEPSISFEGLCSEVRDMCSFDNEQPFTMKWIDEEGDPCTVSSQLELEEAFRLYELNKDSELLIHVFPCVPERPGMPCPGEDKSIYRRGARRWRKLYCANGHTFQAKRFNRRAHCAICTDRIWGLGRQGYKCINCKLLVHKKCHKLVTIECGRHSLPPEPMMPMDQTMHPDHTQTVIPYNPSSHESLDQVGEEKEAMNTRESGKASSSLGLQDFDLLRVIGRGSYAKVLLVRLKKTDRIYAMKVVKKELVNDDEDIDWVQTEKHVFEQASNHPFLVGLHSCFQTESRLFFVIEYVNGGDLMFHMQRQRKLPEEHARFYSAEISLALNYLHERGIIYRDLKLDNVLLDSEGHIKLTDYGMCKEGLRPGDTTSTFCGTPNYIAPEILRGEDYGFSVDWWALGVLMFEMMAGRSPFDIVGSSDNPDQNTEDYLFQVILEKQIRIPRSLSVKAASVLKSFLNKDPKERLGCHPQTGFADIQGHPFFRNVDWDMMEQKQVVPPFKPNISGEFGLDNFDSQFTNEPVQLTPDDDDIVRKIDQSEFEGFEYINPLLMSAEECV
Conditions: previously seen, stated as similar; read-out: IC50, inhibition of aPKC activity in mouse adipocytes; cited from earlier work.

For `NC(=O)c1ncn([C@@H]2C[C@H](COP(=O)(O)O)[C@@H](O)[C@H]2O)c1N` [ICAPP], the IC50 is 1 to 10 nM.

Usually IC50 stands for the concentration needed to halve the response being measured.
